Data published in patent publication US11987557B2, “Phenalene-1-one-containing photosensitizer composition, phenalene-1-one compound and the use thereof” ([…], priority 2017, dated 2024).
Values joined by “and” are separate entries in the source; they are usually repeats but may differ in a detail not shown here. Identical values can stand only once.

Assays:
S. aureus [1] = assay: Long-term test of photoactive stability after pre-irradiation (Example 5); assay type: cell-based, Staphylococcus aureus
Experimental: In order to test the stability of the lacks produced, a long term test was carried out.
The test surfaces were pre-irradiated for different time periods (5, 25, 50, 75 h) at an output of 5 mW cm^−2 in order to establish whether the respective photosensitizer in PUR was affected in a manner such that the phototoxic activity of the surface was reduced:
Following the pre-irradiation, the surfaces as described above were contaminated with S. aureus then irradiated for 2 h (corresponds to 5 mW cm^−2) and the phototoxic efficiency was measured.

[2] = system: Staphylococcus aureus ATCC 25923; assay: Photodynamic inactivation of S. aureus on coated sample supports, LED 405 nm (Example 3); assay type: cell-based
Experimental: The photosensitizer was dissolved in the respective paint system and applied to various square sample supports (width: 4 cm, length: 4 cm, thickness: 3 mm) formed from PVC or PMMA and then dried. After drying the coating, a specific quantity of bacteria from the species Staphylococcus aureus ATCC 25923 was applied to the surface.
In this regard, firstly, an overnight (ON) culture of S. aureus in 5 mL of Mueller Hinton broth (Carl Roth GmbH+Co. KG, Karlsruhe, DE) was inoculated with a single colony from an agar plate and incubated at 37° C. and 180 rpm on a shaker for 18-20 hours.
On the day of the test, in each case 1 mL of ON culture was centrifuged (Hettich Universal 320 R centrifuge (Andreas Hettich GmbH & Co. KG, Tuttlingen, DE); swing-out rotor 1494; 10 Min, 3000 rpm, RT). The supernatant was discarded and the pellet was re-suspended in 1 mL of Milli-Q water, which is commercially available from Merck (KGaA, Darmstadt, DE) (designation “Milli-Q Integral Ultra-pure Water (Type 1)”).
After determining the optical density at 600 nm (“Specord 50 plus”, spectrometer, Analytik Jena), the re-suspended bacteria were diluted with Milli-Q-water to a cell count of 10^5 bacteria/mL. From the dilution, in each case 100 μL was dripped onto the sample support using a pipette (droplet size approximately 1 cm^2).
The sample support was then dried in air under a clean bench in the dark for approximately 2 hours, until water could no longer be seen on the surface.
The respective sample supports were irradiated with monochrome light at a wavelength of 405 nm with the aid of a LED module (test area 5×5 cm homogeneously illuminated; high power LEDs) or with room lighting (Osram Lumilux Cool White, colour temperature 4000 K) at the intensities and for the irradiation periods given below. Directly after irradiation, the bacteria were wiped from the surface of the respective sample support with a sterile cloth and re-suspended in 1 mL of Mueller-Hinton broth.
Next, the sample was serially diluted (1:10 dilution stages: 180+20 μL; to dilution stage 10^5).
For each dilution stage (100 to 10^−5), 3× respectively 20 μL of broth was dripped onto a Mueller-Hinton agar plate (Carl Roth GmbH+Co. KG) using a pipette, and spread. The agar plates were then incubated at 37° C. ON.
On the following day, the colonies from all of the dilution stages which could be counted of an experiment were counted and the CFU/mL was calculated.
Next, from the value for the CFU/mL, the log10 eradication rate was calculated. The reference point in each experiment was the reference control (=100% count of bacteria employed).
A test was composed of the following: • coated sample support: without photosensitizer, not irradiated (“reference control”) • coated sample support: with photosensitizer, not irradiated (“dark control”) • coated sample support: without photosensitizer and irradiated (“light control”) • coated sample support: with photosensitizer and irradiated (“sample”)
• Coated material: PMMA, 3 mm thickness, 4×4 cm • Drying time approximately 1 hour • Drying temperature 15-30° C. • Application with a spray gun • Concentration of photosensitizer used: […] (61.55 mg/L) Irradiation Conditions:
• Coated material: PVC, 3 mm thickness, 4×4 cm • Drying time approximately 2 hours • Drying temperature 15-30° C. • Relative humidity for the drying time 30-70% • Application with a spray gun • Concentration of photosensitizer used: […] (61.55 mg/L) Irradiation Conditions: […]

S. aureus [3] = assay: Phototoxic effect of coated surface in office lighting (Example 4); assay type: cell-based, Staphylococcus aureus; conditions: 2-C paint from Example 2.1, storage 24 h, illumination period 12 h
Experimental: In a subsequent test, the 2-C paint system was irradiated with room lighting. In this regard, the photoactive surfaces produced in Example 2.1 with the photosensitizers SAPN-19c and SAPN-19 were additionally stored exposed in areas with normal office lighting (standard fluorescent lights, Osram Cool White, 840) and the phototoxic action on S. aureus with the same pathogen counts as in Example 3 was analysed after specific periods. In this regard, the photoactive layers were distanced from the light source by approximately 40 cm. It was shown that for the photosensitizer SAPN-19c, after storage for 24 h under standard office lighting conditions with an illumination period of 12 h, that ail pathogens on the surface had been completely eradicated (approximately 5.5 log10 units, corresponding to >99.999% reduction).

| Structure (SMILES) | phototoxic efficiency after pre-irradiation (S. aureus [1]; PUR surface pre-irradiated 5, 25, 50, 75 h at 5 mW cm^−2, then contaminated with S. aureus and irradiated 2 h) | state of the test surfaces after one month (S. aureus [1]; porphyrin-doped surfaces, after one month) | mean eradication of S. aureus ([2]; 1-C polyurethane paint, water-based, on PVC, LED 405 nm, 10 mW/cm^2, 10 minutes (6 J/cm^2), three independent tests) | eradication of S. aureus ([2]; 2-C polyurethane paint on PMMA, LED 405 nm, 0.7 mW/cm^2, after 20 minutes, two independent tests) | log10 reduction of S. aureus ([2]; 2-C polyurethane paint on PMMA, photosensitizer 200 μm (61.55 mg/L), LED 405 nm, 10 mW/cm^2, 2 minutes (1.2 J/cm^2), mean of 3 independent experiments) | extermination of S. aureus ([2]; 2-C polyurethane paint on PMMA, photosensitizer 200 μm (61.55 mg/L), LED 405 nm, 20 mW/cm^2, 2 minutes (2.4 J/cm^2)) | reduction of the bacteria involved ([2]; coating at 6 J/cm^2, equivalent of 3 log10 units) | eradication of pathogens on the surface (S. aureus [3]; standard office lighting (Osram Cool White, 840), approx. 40 cm) | reduction of pathogens on the surface (S. aureus [3]; standard office lighting) |
| --- | --- | --- | --- | --- | --- | --- | --- | --- | --- |
| OCCOCCOc1ccc(-c2c3nc(c(-c4ccccc4)c4ccc([nH]4)c(-c4ccccc4)c4nc(c(-c5ccccc5)c5ccc2[nH]5)C=C4)C=C3)cc1 [TPP sensitizer WBII/2] | noticeable reduction in the phototoxic efficiency | discoloured significantly and they lost phototoxic activity | – | – | – | – | – | – | – |
| CC(C)(O)c1cc[n+](CC2=Cc3cccc4cccc(c34)C2=O)cc1 [SAPN-19c] | – | – | 3.0 log10 units and 3 log10 units | 1.9 log10 units | 1.8 log10 | 2.7 log10 units | 99.9% | approximately 5.5 log10 units | > 99.999% |
